These results are taken from ChEMBL document CHEMBL4673296 (J Med Chem, 2020).

Active and inactive are the calls of the source. The calls are words filed in the database; no cut-off is given here. Some results are limits rather than exact numbers.

The target of series [1] is T1, Serine/threonine-protein kinase ULK1 (Homo sapiens) (UniProt O75385).
T1 sequence (whole entry): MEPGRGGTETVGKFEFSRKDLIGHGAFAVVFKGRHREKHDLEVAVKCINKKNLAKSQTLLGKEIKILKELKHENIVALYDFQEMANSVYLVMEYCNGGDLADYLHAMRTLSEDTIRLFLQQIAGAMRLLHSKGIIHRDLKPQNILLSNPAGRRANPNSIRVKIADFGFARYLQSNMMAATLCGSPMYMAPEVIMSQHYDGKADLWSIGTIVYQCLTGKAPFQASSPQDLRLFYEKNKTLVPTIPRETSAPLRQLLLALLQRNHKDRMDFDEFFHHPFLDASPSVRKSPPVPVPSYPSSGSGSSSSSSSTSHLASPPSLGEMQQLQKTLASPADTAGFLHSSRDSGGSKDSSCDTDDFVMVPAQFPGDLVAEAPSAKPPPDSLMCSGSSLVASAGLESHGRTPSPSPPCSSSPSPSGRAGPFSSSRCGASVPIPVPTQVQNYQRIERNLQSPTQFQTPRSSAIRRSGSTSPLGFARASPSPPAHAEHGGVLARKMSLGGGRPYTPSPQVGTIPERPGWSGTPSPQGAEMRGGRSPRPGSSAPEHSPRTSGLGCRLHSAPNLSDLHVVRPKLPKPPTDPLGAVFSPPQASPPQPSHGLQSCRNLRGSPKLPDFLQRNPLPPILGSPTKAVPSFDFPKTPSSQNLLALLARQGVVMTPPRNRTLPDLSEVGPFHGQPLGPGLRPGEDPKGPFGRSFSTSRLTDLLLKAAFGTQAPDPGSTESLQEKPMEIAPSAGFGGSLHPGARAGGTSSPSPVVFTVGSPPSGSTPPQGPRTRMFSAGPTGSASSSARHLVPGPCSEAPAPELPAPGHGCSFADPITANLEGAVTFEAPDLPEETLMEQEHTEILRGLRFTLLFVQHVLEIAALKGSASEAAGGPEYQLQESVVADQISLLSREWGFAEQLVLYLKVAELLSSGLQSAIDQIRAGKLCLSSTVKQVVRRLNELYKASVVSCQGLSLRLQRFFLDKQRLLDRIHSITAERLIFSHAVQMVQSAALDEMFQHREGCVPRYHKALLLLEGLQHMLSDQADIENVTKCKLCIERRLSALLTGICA
The series can be described thus: Binding affinity to recombinant human ULK1 assessed as change in melting temperature at 10 uM by thermal shift assay.

Series [2] has as its target T2, Serine/threonine-protein kinase ULK2 (Homo sapiens, UniProt Q8IYT8).
T2 sequence (Q8IYT8 whole entry): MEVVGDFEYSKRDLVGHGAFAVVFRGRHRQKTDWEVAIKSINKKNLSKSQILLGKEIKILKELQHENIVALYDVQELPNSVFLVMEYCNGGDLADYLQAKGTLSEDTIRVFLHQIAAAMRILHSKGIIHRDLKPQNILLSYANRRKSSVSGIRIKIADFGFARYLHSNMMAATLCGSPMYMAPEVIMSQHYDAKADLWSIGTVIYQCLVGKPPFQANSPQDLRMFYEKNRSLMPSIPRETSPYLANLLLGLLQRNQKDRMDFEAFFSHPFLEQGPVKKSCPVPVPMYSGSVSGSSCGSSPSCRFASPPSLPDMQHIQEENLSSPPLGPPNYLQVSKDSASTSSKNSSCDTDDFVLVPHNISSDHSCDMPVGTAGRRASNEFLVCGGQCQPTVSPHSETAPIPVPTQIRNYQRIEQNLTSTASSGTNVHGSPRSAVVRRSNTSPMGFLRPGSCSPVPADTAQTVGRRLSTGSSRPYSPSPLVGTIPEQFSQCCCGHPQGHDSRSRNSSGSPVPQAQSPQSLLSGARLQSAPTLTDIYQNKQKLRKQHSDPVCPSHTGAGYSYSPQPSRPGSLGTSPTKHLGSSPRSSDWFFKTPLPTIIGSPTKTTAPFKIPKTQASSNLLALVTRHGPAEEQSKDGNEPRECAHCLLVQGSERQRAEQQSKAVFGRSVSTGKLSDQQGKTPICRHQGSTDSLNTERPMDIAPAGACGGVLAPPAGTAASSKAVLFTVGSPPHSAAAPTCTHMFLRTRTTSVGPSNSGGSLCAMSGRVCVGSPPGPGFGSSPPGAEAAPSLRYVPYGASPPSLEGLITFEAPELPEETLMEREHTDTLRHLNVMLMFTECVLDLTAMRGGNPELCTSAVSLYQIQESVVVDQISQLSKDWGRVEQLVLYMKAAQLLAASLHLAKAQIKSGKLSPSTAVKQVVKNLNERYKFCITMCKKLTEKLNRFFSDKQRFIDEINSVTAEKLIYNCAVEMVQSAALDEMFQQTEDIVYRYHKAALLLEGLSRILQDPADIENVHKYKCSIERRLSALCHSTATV
The series can be described thus: Inhibition of ULK2 (unknown origin) expressed in HEK293T cells incubated for 2 hrs by NanoBRET assay. Type of series: cell-based.

The nature of series [3]: Apparent permeability of the compound across basolateral side to apical side in human Caco2 cells. Type of series: ADME, cell-based. Conditions: Caco-2.
Series [4] concerns the target T1, Serine/threonine-protein kinase ULK1 (Homo sapiens). The series can be described thus: Inhibition of Myc-tagged ULK1 (unknown origin) expressed in HEK293T cells cotransfected with wild-type Flag tagged Beclin-1 assessed as decrease in pBeclin1 Ser15 at 10 uM measured after 1 hr by Western blot analysis relative to control. It is filed as cell-based. For orientation: A western blot detects proteins with antibodies after separation by electrophoresis.

Series [5] can be described thus: Tmax in C57BL/6J mouse at 30 mg/kg, po measured upto 24 hrs by LC-MS/MS analysis. Conditions: in vivo. Type of series: ADME, organism-based.
The nature of series [6]: Cmax in C57BL/6J mouse at 30 mg/kg, po measured upto 24 hrs by LC-MS/MS analysis. Type of series: ADME, organism-based. Details: route oral, dose 30 mg/kg, time <=24. Conditions: in vivo.
Series [7] in a line: AUC (0 to t) in C57BL/6J mouse at 30 mg/kg, po measured upto 24 hrs by LC-MS/MS analysis. It is filed as ADME, organism-based. Also on record: dose 30 mg/kg, time <=24. Conditions: in vivo.
A further series deals with Mus musculus. The series can be described thus: Decrease in ULK1 level in liver lysate of C57BL/6J mouse at 10 mg/kg, po measured after 2 hrs by Western blot analysis. It is filed as functional, organism-based.
Series [8] deals with MDA-MB-468. The series can be described thus: Induction of apoptosis in human MDA-MB-468 cells assessed as late apoptotic cells at 10 uM measured after 18 hrs in normal growth media by AnnexinV/7-AAD staining based flow cytometric analysis (reference value: 6.8%). Type of series: functional.
A short description of series [9]: Inhibition of starvation-induced autophagic flux in human MDA-MB-468 cells expressing tandem-labelled mCherryEGFP-LC3 chimeric protein at 10 uM measured after 18 hrs in EBSS media by flow cytometry (Rvb >90%). It is filed as functional. (Flow cytometry measures light scatter and fluorescence of single cells or particles in a stream.)
Series [10] deals with MDA-MB-468. The series can be described thus: Synergistic cytotoxicity against human MDA-MB-468 cells a t0.021 to 15 uM in presence of PARP inhibitor olaparib measured after 72 hrs by Celltiter-Glo assay. Type of series: functional, cell-based. Particulars: dose 0.021-15 µM. Background: In ATP-based viability assays light output follows the ATP content of the culture.
Series [11] relates to MDA-MB-468. Briefly: Inhibition of olaparib-induced autophagic flux in human MDA-MB-468 cells expressing tandem-labelled mCherryEGFP-LC3 chimeric protein at 10 uM measured after 48 hrs by flow cytometry. Type of series: functional, cell-based.
In series [12] the test system is MDA-MB-468. Briefly: cells. Conditions: Homo sapiens, MDA-MB-468, 72 h.
Description: Cytotoxicity against human MDA-MB-468 cells measured after 72 hrs by Celltiter-Glo assay

As usually defined, the ΔTm is the shift of the melting midpoint relative to a reference. What is called IC50 is the point on the concentration scale where inhibition reaches its midpoint. The low end stands for inhibition by little substance, the high end for a need for much substance. In general, Papp B→A refers to the apparent permeability from the basolateral to the apical side of a cell layer. One may read the inhibition as the drop in the measured response relative to a control, in per cent. The Tmax is the time from dosing to the highest level. By Cmax is commonly meant the peak of the concentration-time curve. For orientation: AUC(0-t) means the area under the concentration-time curve up to a stated or last time point. Read a low AUC(0-t) as less exposure. Take `COc1ccc(Nc2ncc(C(F)(F)F)c(NC3CC3)n2)cc1OC`: in series [1], the ΔTm came out at 8.3 °C. Also, the IC50 in series [2] is 1160 nM; with MDA-MB-468 [12], 300 nM. Further, in series [3], the basolateral-to-apical permeability (Papp B→A) was over 10 ×10⁻⁶ cm/s. For the same compound, the inhibition in [4] came to 60%. Moreover, the Tmax in series [5] was found to be 1 h. For the same compound, in [6], the highest level (Cmax) was 990 nM. Further, in series [7], the AUC(0-t) at 24 h amounted to 2.3 µM·h. Besides, the inhibition entry with Mus musculus and in the series on MDA-MB-468 [11] was “Active” throughout. Moreover, the Activity in the series on MDA-MB-468 [8] worked out at 6.8%. Moreover, the inhibition at 10 µM in series [9] is 60%. For the same compound, the result in the series on MDA-MB-468 [10] was Active.
